Results filed as inconclusive are left out. Active and inactive are the calls of the source. How the calls were made is not given here.
These molecules were tested on Mycobacterium tuberculosis non-replicating, growth inhibition (assay: growth inhibition of non-replicating M. tuberculosis (AID 488890)).

| Structure (SMILES) | IC50 |
| --- | --- |
| O=C(COC(=O)CC12CC3CC(CC(C3)C1)C2)Nc1cccnc1Cl | 15.2 µM (inactive) |
| O=C(NC1CCCC1)c1cc(-c2cccs2)on1 | 5.66 µM |
| O=C(OCC(=O)N1CCc2ccccc21)c1ccc([N+](=O)[O-])cc1 | 12.5 µM (inactive) |
| Cc1ccc(C(=O)CCC2CCCC2=O)cc1 (stereo unspecified) | 14.4 µM (inactive) |
| Cc1ccc2c(c1)C(=O)C(=O)N2CCCOc1ccccc1 | 22.9 µM (inactive) |
| CCOCC(=O)Nc1ccc(C)c(Cl)c1 | 5.63 µM |
| COc1ccc(NC(=O)c2cc3ccccc3o2)cc1 | 5.57 µM |
| C#CCSc1nnc(-c2cccc3ccccc23)o1 | 3.46 µM |
| CC(C)c1ccc2[nH]c3c(c2c1)CCC/C3=N\NC(=O)c1ccncc1 | 8.7 µM |
| COc1ccc(S(=O)(=O)N(C(C)=O)c2ccc(OC(C)=O)c3ccccc23)cc1[N+](=O)[O-] | 13.6 µM (inactive) |
| O=C1Nc2cc(C(=O)NCCCN3CCOCC3)ccc2S/C1=C/c1cccc(Cl)c1 | 20.8 µM (inactive) |
| CCCCOC(=O)Cn1c(-c2ccccc2)nc2ccccc2c1=O | 11.3 µM (inactive) |
| CC1(C)C[C@H]2C=C(C=O)[C@]3(C=O)C[C@]3(C)[C@H]2C1 | 2.94 µM |
| O=C1CC(=O)CC(c2ccccc2)C1 | 29.8 µM (inactive) |
| c1ccc(-c2nc3ccccn3c2NC2CCCC2)nc1 | 24.9 µM (inactive) |
| CCc1ccc(N2NC(=O)/C(=C/C=C/c3ccco3)C2=O)cc1 | 3.65 µM |
| Cn1ccsc1=NC(=O)c1ccccc1F | 22.4 µM (inactive) |
| Cc1ccc(S(=O)(=O)CCC(=O)Nc2nc(-c3ccncc3)cs2)cc1 | 14.6 µM (inactive) |
| Cc1cccc(NC(=O)c2ccc([N+](=O)[O-])s2)n1 | 0.52 µM |
| COc1ccccc1NC(=O)c1cnc(SC)nc1 | 22.3 µM (inactive) |
| CC1=CC(C)(C)Nc2ccc(OC(=O)CN3C(=O)c4ccccc4C3=O)cc21 | 9.07 µM |

| Structure (SMILES) | IC50 |
| --- | --- |
| CC(C)n1c(=S)[nH]c2ccccc2c1=O | 14.2 µM (inactive) |
| Cc1ccc(Sc2ccc(/C=C3/C(=O)NN(c4ccccc4)C3=O)o2)cc1 | 4.23 µM |
| CCS(=O)(=O)c1ncc(Cl)c(C(=O)Nc2ccc(S(=O)(=O)N3CCC(C)CC3)cc2)n1 | 9.7 µM |
| NC(N)=Nc1nc(-c2ccccc2)c2ccccc2n1 | 12.8 µM (inactive) |
| Cc1nc([N+](=O)[O-])c(Br)n1CC(=O)c1ccccc1 | 25.5 µM (inactive) |
| CN(C)CC/C=C1\c2ccccc2Sc2cc(F)c(Cl)cc21 | 10.5 µM (inactive) |
| CC(C)(C)NCc1cc(Br)ccc1OC1CCCC1 | 8.01 µM |
| CCOc1ccccc1C(=O)OCC(=O)Nc1nnc(-c2ccccc2)o1 | 21.7 µM (inactive) |
| CC(Cc1ccccc1Sc1ccccc1)N(C)C (stereo unspecified) | 26 µM (inactive) |
| CC(=O)CCC1CC(c2ccc(Cl)cc2)=NO1 (stereo unspecified) | 2.39 µM |
| COc1cc2[nH]c(Cl)c([N+](=O)[O-])c2cc1OC | 14.1 µM (inactive) |
| O=C1NC(=O)N(Cc2ccc(F)cc2)C(=O)/C1=C\c1ccc([N+](=O)[O-])s1 | 11.2 µM (inactive) |
| S=c1[nH]c2ccccc2o1 | 27.5 µM (inactive) |
| COc1ccc(/C=C2\Sc3ccc(C(=O)NCCN4CCCCCC4)cc3N(C)C2=O)cc1 | 12.7 µM (inactive) |
| CCOC(=O)COc1ccc2c3c(c(=O)oc2c1C)CCC3 | 14 µM (inactive) |
| CCCCN(C)C(=O)c1cc2cc3ccc(OC)cc3nc2s1 | 6.04 µM |
| CCCOC(=O)c1ccc(OC(=O)c2ccco2)cc1 | 21.9 µM (inactive) |
| CCN1/C(=C(\O)c2ccccc2)C(=O)c2ccccc2S1(=O)=O | 15.8 µM (inactive) |
| Nn1c(SCCOc2ccc(Cl)cc2)nnc1-c1cccnc1 | 23.5 µM (inactive) |
| CC(=O)c1ccc(NC(=O)C(Cc2ccccc2)n2cccc2)cc1 (stereo unspecified) | 12.5 µM (inactive) |
| Cc1cc(C)n(-c2ccc3cccc(NS(C)(=O)=O)c3n2)n1 | 4.85 µM |

| Structure (SMILES) | IC50 |
| --- | --- |
| CC(C)(C)C(=O)COc1ccccc1[N+](=O)[O-] | 17.6 µM (inactive) |
| Clc1cccc(/C=N\Nc2nccs2)c1 | 12 µM (inactive) |
| Cc1ccc(C(=O)CCNc2ccc(F)c(Cl)c2)o1 | 11 µM (inactive) |
| Cc1cc(N2CCCCC2)nc(NCc2ccccc2)n1 | 8.38 µM |
| C/C(=N\NC(=O)c1ccco1)c1cc(Cl)sc1Cl | 4.89 µM |
| COc1cc(CNC2CCCC2)cc(Cl)c1OCc1ccc(F)cc1 | 17.5 µM (inactive) |
| O=C1Nc2cc(C(=O)NCCN3CCCCCC3)ccc2S/C1=C\c1ccccc1 | 12.5 µM (inactive) |
| COc1ccc(Cl)cc1N=Cc1c(O)c2ccccc2oc1=O | 44.3 µM (inactive) |
| O=c1oc2ccccc2nc1/C=C(\O)c1ccc(Br)cc1 | 6.03 µM |
| Fc1ccc(-c2nn(-c3ccccc3)cc2CNCc2ccccc2)cc1 | 8.72 µM |
| Cc1cc(NC(=O)COc2ccccc2)ccc1Cl | 5.43 µM |
| O=C(COC(=O)c1ccc(O)cc1O)c1ccc2c(c1)OCO2 | 25.9 µM (inactive) |
| COc1ccc2cc(C(=O)C3CCCN(Cc4ccccn4)C3)ccc2c1 (stereo unspecified) | 6.59 µM |
| O=C(CCNc1ccc(Cl)cc1)c1cccs1 | 3.79 µM |
| COc1ccc(C(C)=O)cc1COC(=O)c1ccc2ccccc2n1 | 4.38 µM |
| COC(=O)COc1cccc(NC(=O)c2cccc(C)c2)c1 | 9.25 µM |
| Cc1ccc(-c2nnc(-c3ccccc3)o2)cc1 | 1.71 µM |
| O=C(CCNc1cccc(F)c1)c1cccc([N+](=O)[O-])c1 | 5.37 µM |
| CC(C)CN1C(=O)CC(Sc2ccccc2C(=O)O)C1=O (stereo unspecified) | 26.7 µM (inactive) |
| Cc1cc2nc(CSc3ccc(Cl)cc3)cc(=O)n2[nH]1 | 14.8 µM (inactive) |
| Cc1ccccc1Nc1c(-c2ccccn2)nc2ccccn12 | 13.9 µM (inactive) |

| Structure (SMILES) | IC50 |
| --- | --- |
| NC(=S)n1[nH]c(-c2ccc([N+](=O)[O-])cc2)c(N=Nc2ccc(O)cc2)c1=O | 18.5 µM (inactive) |
| O=C(COc1ccc2c(c1)CCC2)Nc1ccccn1 | 11.6 µM (inactive) |
| CSc1ccc(COC(=O)CCS(=O)(=O)c2ccc(C)cc2)cc1 | 19.2 µM (inactive) |
| CCc1ccc(N2C(=O)CC(N3CCC(C(=O)OC)CC3)C2=O)cc1 (stereo unspecified) | 34.6 µM (inactive) |
| Cc1cc(NC(=O)C2CCCCC2)n(-c2nc3ccccc3[nH]2)n1 | 6.84 µM |
| CCOC(=O)C1(CCc2ccccc2)CCN(Cc2ccccn2)CC1 | 13.6 µM (inactive) |
| O=C(COc1ccc(-c2ccccc2)cc1)Nc1cccnc1 | 3.28 µM |
| C(=C\c1ccccc1)/CSc1nc2ncccc2[nH]1 | 4.36 µM |
| COc1ccc(C(=O)COC(=O)CCC(=O)c2cccs2)cc1 | 34.2 µM (inactive) |
| CCOC(=O)C(C)Oc1ccc(OCc2ccccc2)cc1 (stereo unspecified) | 2.24 µM |
| COc1cc(C2C3=C(CC(C)(C)CC3=O)OC(N)=C2[N+](=O)[O-])ccc1O (stereo unspecified) | 50 µM (inactive) |
| O=C(COC(=O)CCc1c[nH]c2ccccc12)Nc1cc([N+](=O)[O-])ccc1Cl | 3.17 µM |
| O=C(NCc1ccc(Cl)cc1)c1n[nH]c([N+](=O)[O-])c1Cl | 13.9 µM (inactive) |
| Cc1cccc2nc(CSc3nc4cc([N+](=O)[O-])ccc4s3)cn12 | 18.1 µM (inactive) |
| CCc1ccc(C(=O)NC2CCCCC2)s1 | 0.94 µM |
| COc1ccc(/C=N/Nc2cc(C)nc(-n3nc(C)cc3C)n2)cc1 | 3.25 µM |
| CC(C)(C)Nc1nc(NC(C)(C)C)nc(-n2ccnc2)n1 | 23 µM (inactive) |
| Cc1cc(C)c(OCC(=O)Nc2nnc(-c3ccco3)o2)c(C)c1 | 45.3 µM (inactive) |
